The text below walks through data of a melting point compilation (Tetko et al.; mined from patent text by program, amines drawn as free bases though some values may be those of a salt).

With `COc1ccc(Cl)cc1C(=O)NCCc1ccc(-c2ccccn2)c(S(N)(=O)=O)c1`, the melting point is 202 to 203 °C. As for `Cc1ccc(N)c(C)c1C1OCCO1`, the melting point was 100 to 103 °C. In turn, `Cc1ccc(Cl)cc1N1CN(Cc2ccccc2)CN(C)C1=S` displayed a melting point of 148 to 149 °C. Consider `Cn1ncc(/C=C/C(=O)Nc2ccc3c(c2)oc(=O)n3C)c1-c1ccc(F)cc1`, for which the melting point lay in the range of 265 to 266 °C. The compound `CCOC(=O)c1cc(C#N)cc(C(F)(F)F)n1` showed a melting point of 71.5 °C. For `NSc1nc(N)nc2nc[nH]c12`, the melting point is over 250 °C. Take `COc1ccc(-c2c(-c3ccccc3)nn3ccccc23)nn1`: the melting point was in the range of 203 to 205 °C.

On to `Cc1nc(NCc2ccccc2)sc1-c1ccnc(Nc2ccc(N3CCOCC3)cc2)n1`, for which the melting point lay within 180 to 183 °C. `CCOC(=O)c1c(CS(=O)c2nccn2C)nc2cc(OC)c(OC)cc2c1-c1ccc(OC)c(OC)c1` (configuration not stated) came in with a melting point of 193 to 194 °C. Compound `Cc1cc(CCCCCOc2c(C)cc(-c3nnn(CCO)n3)cc2C)on1` yielded a melting point of 69 to 70 °C. In the case of `CCCCP(=CC#N)(CCCC)CCCC`, the melting point is 131 to 132 °C. With `C#CCOc1cc(-c2ncc(C(F)(F)F)c(C)c2Cl)c(F)cc1Cl`, the melting point fell in the range of 95 to 98 °C. In turn, `CS(=O)(=O)c1ccc(-c2cnn(CC(F)(F)F)c(=O)c2Cc2cccc(F)c2)cc1` displayed a melting point of 58 to 62 °C. For `Cc1oc(-c2ccccc2)nc1CCOS(C)(=O)=O`, the melting point lay in the range of 88.2 to 89 °C. In turn, `O=C(CBr)CCc1ccccc1` showed a melting point of 39 to 40 °C.

`Cc1cc(Nc2ccnc(Nc3ccc(S(=O)(=O)N(C)C4CCC(F)(F)CC4)cc3)n2)ccc1F` had a melting point of 164 to 165 °C.

Compound `CC(C)(CCn1cncn1)NCC(O)c1ccc(O)c(CO)c1` (configuration not stated) had a melting point of 177 to 180 °C. Turning to `CC(=O)NCCOc1ccc2c(-c3ccccc3F)noc2c1Cl`, the melting point fell in the range of 154 to 155 °C. On to `NC(=O)COC(=O)c1ccccc1Cl`, for which the melting point lay in the range of 117 to 120 °C.

Compound `COc1ccc(CCNc2nc(N)c3nc(-c4ccco4)oc3n2)cc1` showed a melting point of 194 to 196 °C. Turning to `N#CCSc1nnc2ccccn12`, the melting point lay in the range of 121 to 123 °C. As for `CSCC(C)(C)NC(=O)c1ccccc1Cl`, the melting point was 83 to 86 °C. Then `O=c1oc2ncccc2n1CCCBr`, with 62 to 63 °C; and `O=C1c2ccccc2C(=O)N1Cc1ncc(/C=C/C(c2cc(Cl)c(Cl)c(Cl)c2)C(F)(F)F)cc1Cl` (configuration not stated), with 79 to 82 °C; and `CC(C)Cc1nc2ccc(Cl)cc2c(-c2ccccc2)c1CN`, with 114 to 116 °C. For the compound `CCC1NCCc2ccc(NC(=N)c3cccs3)cc21` (configuration not stated), the melting point was 142 to 144 °C.

With `COc1ccc(C(=O)c2coc(C(=O)O)cc2=O)cc1`, the melting point is 185 to 190 °C.

As to `CCCc1nc2c(N)nc3cc(-c4ccccc4)ccc3c2n1CCCC(C)N(OC)C(=O)NC(C)C` (configuration not stated), the melting point was 101 to 103 °C. Compound `CCC(=O)NCCC1CCc2cc(Br)c3c(c21)C=CCO3` (configuration not stated) had a melting point of 110 to 111 °C. `CCOC(=O)C(C)(C)NC(=O)C(Br)c1ccccc1` (configuration not stated) returned a melting point of 81 to 83 °C. Consider `CCCCCCCCCCCCCCCCCC(=O)NCC(COCCCCCCCCCCCCCCCC)COCc1ccccc1` (configuration not stated), for which the melting point lay in the range of 56 to 57 °C. Then `NC1C(O)C(CO)OC1n1ccc(=O)[nH]c1=O` (configuration not stated), with 197 to 199 °C.

Consider `O=C(Nc1ccccn1)c1nc2ccccc2[nH]1`, for which the melting point was determined as 206 °C. The compound `OC1CSC(Oc2cncc(-c3ccncc3Cl)c2)C(O)C1O` (configuration not stated) came in with a melting point of 208 °C. In the case of `CCC(=O)NC1CCc2c(ccc(OC)c2N)C1` (configuration not stated) it was 141 °C; in that of `COc1cc2c(cc1Nc1ncc(Cl)c(Nc3ccccc3S(=O)(=O)N(C)C)n1)CCN(CC(C)O)CC2` (configuration not stated), 183 to 185 °C; in that of `CCC(=O)c1ncn2c1CN(C)C(=O)c1ccccc1-2`, 215 to 216 °C. In the case of `COc1ccc(Oc2c(Br)cc(C=O)cc2[N+](=O)[O-])cc1Cc1ccc(=O)[nH]n1` it was 188 to 190 °C. For the compound `CCCc1nn(C)c2c(=O)n(CCCOc3ccc(OC(C)(C)C(=O)O)cc3)cnc12`, the melting point was in the range of 136 to 138 °C. In the case of `CCn1cc(C(=O)C(Cl)Cl)c(=O)c(-c2cccc(C(F)(F)F)c2)c1` it was 108 to 110 °C. `CCOC(=O)c1cnc2nc(C=CC(N)=O)c(OCC)cc2c1Nc1ccc(OC)cc1` came in with a melting point of 238 to 242 °C. Regarding `CC(c1ccccc1)N1Cc2cncn2C(c2ccc(Br)cc2)C1=O` (single isomer, unassigned; (+)), the melting point lay within 147 to 148 °C. Then `CC(=O)OCC(=O)c1ccc(C)cc1`, with 85 °C. Consider `CCOCn1cc(Cl)c(O)cc1=O`, for which the melting point was in the range of 217 to 219 °C. Compound `CNC(=N)N(C)Cc1ccc(C)cc1` came in with a melting point of 118 to 125 °C. In the case of `Cc1nc(NC(=O)CCCc2ccccc2)sc1C(=O)NCc1ccccc1`, the melting point was in the range of 45 to 46 °C.

For `c1cncc(-c2c[nH]cn2)c1`, the melting point was in the range of 117 to 118 °C.

The compound `COC(=O)C=CC(C)=Cc1cc(N)ccc1Cl` yielded a melting point of 47 to 50 °C. In the case of `CN(C)CC1=C(Nc2ccccc2)CC(C)(C)CC1=O` it was 111 to 112 °C; in that of `Cc1ccc(NC(=O)N(C)N)cc1NC(=O)N(C)N`, 164 to 165 °C. Then `Fc1ccc(-c2ncnc(C(F)F)c2Cl)c(F)c1`, with 69 to 71 °C; and `O=c1c(CCl)c[nH]c2c([N+](=O)[O-])cccc12`, with 228 to 235 °C. Then `Cc1cccc(-c2nc(C(C)C)[nH]c2-c2ccc(F)c(-c3ccc(CC4CNCCO4)cc3)c2)n1` (configuration not stated), with 147 to 161 °C; and `COc1cnc(CSc2nc3cc4c(cc3[nH]2)OCO4)cc1OC`, with 198 to 200 °C; and `O=Cc1cc([N+](=O)[O-])c(CCl)cc1O`, with 135 °C. The compound `Cc1ccc(-n2c(=O)[nH]c(C(F)(F)F)c(F)c2=O)cc1C(=O)OC(C)C` yielded a melting point of 97 to 100 °C. Regarding `CC1=C(c2ccc(F)c(F)c2)C(=NO)CC1`, the melting point lay within 155 to 156 °C. In the case of `Cc1ccc(S(C)(=O)=O)c(C)c1Cl` it was 116 to 119 °C; in that of `CC(=O)N(O)Cc1ccc(OCc2ccccc2)cc1`, 119 to 120 °C. Then `Cc1ccc2c(c1)c(-c1ccnc3c(C(F)(F)F)cccc13)c(C)n2CC(=O)O`, with 145 °C; and `COCC1CN(c2cc3c(cc2F)c(=O)c(C(=O)O)cn3-c2ccc(F)cc2)CCN1` (configuration not stated), with 216 to 218 °C; and `COC(=O)c1cc(OCCCOc2ccccc2-c2ccccc2)cc(OCCCOc2ccccc2-c2ccccc2)c1`, with 77 to 79 °C. In the case of `COC(=O)c1ccc(OC)c2cc(OC)ccc12`, the melting point is 102 to 104 °C. In the case of `CN(c1cccc2cc(C3=NCC(CN4CCS(=O)(=O)CC4)S3)[nH]c12)S(=O)(=O)c1ccccn1` (configuration not stated) it was 188 to 189 °C; in that of `CC(C)(C)c1cc(C(c2ccc(C#N)cc2)N2CCCCC2)c(O)c(C(C)(C)C)c1` (configuration not stated), 165 to 166 °C; in that of `CCOc1ccc2c(=O)cc(-c3ccccc3)oc2c1`, 138 to 139 °C. Then `CCCCC1(N(C)C)CC=C(c2[nH]c3ccccc3c2Cc2ccccc2)CC1` (configuration not stated), with 107 to 115 °C.
